{"source": "patent US6413717B1", "about": "“Methods for indentifying anti-cancer agents” (Corixa Corporation, priority 1998, dated 2002)", "origin": "cited, not measured here", "key": {"human melanoma cells": {"system": "human melanoma cells", "conditions": "IFN-β 2000 U and MEZ 10 ng/mL"}, "mda-7": {"system": "mda-7", "conditions": "IFN-β 2000 U and MEZ 10 ng/mL, agents known to modulate gene expression"}}}
{"smiles": "C=C(C)[C@@]12O[C@@]3(c4ccccc4)O[C@@H]1[C@@H]1[C@@H]4O[C@]4(CO)[C@@H](O)[C@]4(O)C(=O)C(C)=C[C@H]4[C@@]1(O3)[C@H](C)[C@H]2OC(=O)/C=C/C=C/c1ccccc1", "note": "[mezerein]", "values": [{"measurement": "proliferative potential", "setting": "human melanoma cells", "result": "irreversible loss of proliferative potential"}, {"measurement": "terminal differentiation", "setting": "human melanoma cells", "result": "induction of terminal differentiation"}, {"measurement": "mda-7 expression", "setting": "mda-7", "result": "induce an increase"}]}
